Structures are written as SMILES.

Results on one compound are retold here after paper PMC7466059, “Synthesis and Ex Vivo Trans-Corneal Permeation of Penetratin Analogues as Ophthalmic Carriers: Preliminary Results” (Pharmaceutics, 2020).

Details of data set [1]: method as in PMID 24521351, PMID 28927928. As to conditions: literature report; cited from earlier work.
The nature of data set [2]: Ex vivo trans-corneal permeation, Franz-type diffusion cells. Format: in vitro ADME, pig. The note with it: ex vivo porcine cornea, epithelial side to donor, area 0.2 cm^2; donor 100 µM, 200 µL; donor and receiving solutions PBS pH 7.4; 37 °C, 6 h, hourly sampling; fluorescence 485/535 nm; mean ± sd, n = 3-4. The protocol: Permeation experiments across freshly porcine cornea were performed following a method previously reported. In detail, transparent porcine corneas were isolated from fresh pig eyes (breed: Large White and Landrace; weight: 145–190 kg; age: 10–11 months; sex: female and male; Macello Annoni SpA, Busseto, Italy) and supported by glass Franz-type diffusion cells, having a permeation area of 0.2 cm^2. The epithelial side was in contact with the donor, i.e., 200 µL of aqueous solution containing a peptide: each concentration and solvent are indicated in Table 2. Donor concentrations were selected based on different solubility and analytical sensitivity (see paragraph 2.4 and Table S2). For some peptides, the solubilization was improved by dissolving the raw material using small amount of DMSO (final concentration less than 5% v/v), and then PBS or PBS+0.1% BSA were alternately added.
To fill the receptor compartment, around 4 mL of degassed PBS or PBS+0.1% BSA was used (see Table 2), being kept at 37 °C and maintained under magnetic stirring to avoid any boundary layer effect. The presence of 0.1% BSA aids in preventing peptides aggregation. Permeation experiments lasted 6 h, and for quantification purposes, 200 µL of the receiving solution were collected every hour and reintegrated with fresh medium. Each condition was replicated between 3 and 4 times, using cornea isolated from different animals.
Permeation samples were analysed without preliminary separation by fluorescence, using a Spark 10M microplate reader (Tecan Trading AG, Switzerland); excitation and emission wavelengths were 485 nm and 535 nm, respectively. Standard solutions were prepared in PBS pH 7.4 or in PBS containing BSA 0.1%. RSD% (relative standard deviation %) was lower than 10%, while ER% (relative error %) resulted lower than 15%.
The amount of CPP permeated across the cornea (nmol/cm^2) is plotted against time (hour): the slope of the regression line at steady state represents the trans-corneal flux J (nmol/cm^2 h). The apparent permeability coefficient Papp (cm/s) is then calculated as Equation (1): Papp = J/c(1) being c (µM) the concentration of the donor solution. Papp allows for a direct comparison among permeants studied using different donor concentrations.

Regarding `CC[C@H](C)[C@H](NC(=O)[C@H](CCCCN)NC(=O)[C@@H](NC(=O)[C@H](CCC(N)=O)NC(=O)[C@H](CCCNC(=N)N)NC(=O)c1ccc2c(c1)C(=O)OC21c2ccc(O)cc2Oc2cc(O)ccc21)[C@@H](C)CC)C(=O)N[C@@H](Cc1c[nH]c2ccccc12)C(=O)N[C@@H](Cc1ccccc1)C(=O)N[C@@H](CCC(N)=O)C(=O)N[C@@H](CC(N)=O)C(=O)N[C@@H](CCCNC(=N)N)C(=O)N[C@@H](CCCNC(=N)N)C(=O)N[C@@H](CCSC)C(=O)N[C@@H](CCCCN)C(=O)N[C@@H](Cc1c[nH]c2ccccc12)C(=O)N[C@@H](CCCCN)C(=O)N[C@@H](CCCCN)C(N)=O` [reference compound], in data set [1], the ocular toxicity entry is reported as “lacking in ocular toxicity”. For the same compound, the “Papp (apparent permeability coefficient)” value in data set [2] is on record as 4.54 ± 2.01 10^−6 cm/s.
